Laboratory results: article PMC5365251, “Biophysical assay for tethered signaling reactions reveals tether-controlled activity for the phosphatase SHP-1” (Science Advances, 2017)

Key:
SHP-1 [1] = target: T1, SHP-1 (Mus musculus, UniProt P29351); experiment: SPR of SHP-1 injected over ITIM peptides: SHP-1 binding to the peptides; parameters: species or system murine; settings: SHP-1 over peptides with shorter PEG linkers, compared with PEG28-ITIM; Fig. 5B
T1 construct: 6xHis (N); made in house; host or cells: Escherichia coli BL21-CodonPlus (DE3)-RIPL
Protocol: (§1) A construct expressing murine SHP-1 with an N-terminal 6× His tag was provided by M. H. Brown. Mutation of the SH2 domains was performed using a quick-change strategy. The mutations introduced were R30K and R33E for the N-terminal SH2 domain mutant and R136K for the C-terminal SH2 domain mutant previously shown to result in loss of binding ([6]). All peptides were ordered from PeptideSynthetics and were certified to be >95% pure. Peptides sequences were derived from the membrane-proximal ITIM sequence of mouse LAIR-1 receptor.
(§2) Experiments were performed on a Biacore 3000 instrument (GE Healthcare Life Sciences). All experiments were performed at 10°C and with a buffer flow rate of 10 μl/min. The buffer used was Hepes-buffered saline (HBS-EP; GE Healthcare Life Sciences), which contained 10 mM Hepes (pH 7.4), 150 mM NaCl, 3 mM EDTA, and 0.005% Surfactant P20.
A CM5 sensorchip was coupled with streptavidin to near saturation (typically between 4000 and 7000 RU) using the amine coupling kit (GE Healthcare Life Sciences) as described previously ([42]). After streptavidin was coupled, biotinylated peptides were injected to give the indicated concentrations in experimental flow cells, and excess biotin-binding sites were blocked with biotin in HBS-EP. […]

SHP-1 [2] = target: T1, SHP-1; experiment: SPR of SHP-1 injected over ITIM peptides with different PEG linker lengths: reach and tethered catalysis (MPDPDE fit); type: biochemical, murine; settings: for kcat*(tethered) versus tether length: SHP-1 over peptides with shorter PEG linkers, compared with PEG28-ITIM, Fig. 5B; for L (reach parameter) versus tether length: SHP-1 over peptides, average fit, PEG28 n = 15, PEG0 n = 2, 10°C, HBS-EP pH 7.4
Protocol: as §1, §2
(§3) A CM5 sensorchip was coupled with streptavidin to near saturation (typically between 4000 and 7000 RU) using the amine coupling kit (GE Healthcare Life Sciences) as described previously ([42]). After streptavidin was coupled, biotinylated peptides were injected to give the indicated concentrations in experimental flow cells, and excess biotin-binding sites were blocked with biotin in HBS-EP. The molar ratio of peptide to streptavidin was kept below 1:1 to ensure that peptide immobilization was random and not clustered on the tetravalent streptavidin molecules. Reference flow cells were treated with buffer and then blocked with biotin; pilot experiments using unphosphorylated control peptides in reference flow cells were indistinguishable from buffer-treated reference flow cells when injected with SHP-1. The chip surface was then conditioned with 5 × 5-min injections of HBS-EP. SHP-1 protein in HBS-EP with 1 mM dithiothreitol was then injected over reference and experimental flow cells in series for 5 min at the indicated concentrations. All SPR data were converted from the reference-subtracted data (in resonance units) to fraction bound by dividing the resonance units by the theoretical maximum resonance units expected if the experimental flow cell was saturated with bound SHP-1.
The five fitting parameters (p1, p2, p3, p4, and p5) are related to the five biophysical/biochemical constants as follows: p1 = kon [SHP-1], p2 = koff, p3=kcat*(tethered)× [peptide], p4=kcat*(tethered)/L^3 , and p5=kcat*(solution)× [SHP-1].
The MPDPDE model was fit to the experimental data using lsqcurvefit in Matlab (Mathworks). Specifically, the value of nB from the MPDPDE model was fit to the experimental SPR data that were normalized to maximum binding. Each fit was repeated multiple times with different initial guesses for the five fitting parameters to make certain that the best fit was achieved (global convergence). […]

PEG28-ITIM [3] = experiment: SPR of SHP-1 injected over immobilised PEG28-ITIM: tethered/solution catalysis and reach (MPDPDE fit); type: biochemical, mouse; settings: for L (reach parameter), SH2 variants / allosteric activation (in words), SH2 variants: SHP-1 variants over PEG28-ITIM; for L (reach parameter), SH2 variants: average fit Fig. 6B: WT n = 15, N-SH2 mutant n = 3, C-SH2 mutant n = 9
Protocol: as §1, §2, §3
To determine the concentration of peptide in the assays, we first needed a conversion factor between the resonance units and the mass of peptide at the chip surface. We determined this conversion factor by injecting four concentrations of SHP-1 over a control flow cell on a CM5 chip and plotting the mass of SHP-1 injected against the raw resonance unit change. We repeated this on seven flow cells across four sensor chips to get an average slope of 149 ± 15 RU per g/liter (±SEM). This constant, together with the molecular weight of the peptide, was used to convert between the resonance units of peptides immobilized and the molar concentration at the chip surface. For example, 48.5 RU of PEG28-ITIM (molecular weight, 3221) was immobilized to obtain [peptide] = 97.1 μM (Fig. 2A).
From the MPDPDE model–simulated SPR traces, one would predict that the kcat*(solution) (fig. S4, G and H) and L (fig. S4F) are likely to be very sensitive to small systematic errors in the SPR trace at longer time scales. Nonspecific binding and baseline drift are two well-known sources of such systemic errors that can produce artifacts at long time scales (see fig. S6A for examples). To exclude data affected by these artifacts, we propose a simple quality control check that greatly improves the accuracy of estimating L, kcat*(tethered) , and kcat*(solution) . As a measure of the signal-to-noise ratio at long time points, we took the resonance units 20 s after the injection was completed (noise) and divided it by the resonance units 20 s before the injection finished (signal). […] Data that had evidence of significant artifact were excluded from the study based on this criterion (red data points in fig. S6B). […]

PEG28-ITIM [4] = experiment: SPR of SHP-1 injected over immobilised PEG28-ITIM: binding constants (MPDPDE fit); parameters: species or system mouse; settings: SHP-1 variants over PEG28-ITIM, compared with wild-type
Protocol: as §1, §2, §3
To determine the concentration of peptide in the assays, we first needed a conversion factor between the resonance units and the mass of peptide at the chip surface. We determined this conversion factor by injecting four concentrations of SHP-1 over a control flow cell on a CM5 chip and plotting the mass of SHP-1 injected against the raw resonance unit change. We repeated this on seven flow cells across four sensor chips to get an average slope of 149 ± 15 RU per g/liter (±SEM). […]

T1 sequence (P29351 whole entry): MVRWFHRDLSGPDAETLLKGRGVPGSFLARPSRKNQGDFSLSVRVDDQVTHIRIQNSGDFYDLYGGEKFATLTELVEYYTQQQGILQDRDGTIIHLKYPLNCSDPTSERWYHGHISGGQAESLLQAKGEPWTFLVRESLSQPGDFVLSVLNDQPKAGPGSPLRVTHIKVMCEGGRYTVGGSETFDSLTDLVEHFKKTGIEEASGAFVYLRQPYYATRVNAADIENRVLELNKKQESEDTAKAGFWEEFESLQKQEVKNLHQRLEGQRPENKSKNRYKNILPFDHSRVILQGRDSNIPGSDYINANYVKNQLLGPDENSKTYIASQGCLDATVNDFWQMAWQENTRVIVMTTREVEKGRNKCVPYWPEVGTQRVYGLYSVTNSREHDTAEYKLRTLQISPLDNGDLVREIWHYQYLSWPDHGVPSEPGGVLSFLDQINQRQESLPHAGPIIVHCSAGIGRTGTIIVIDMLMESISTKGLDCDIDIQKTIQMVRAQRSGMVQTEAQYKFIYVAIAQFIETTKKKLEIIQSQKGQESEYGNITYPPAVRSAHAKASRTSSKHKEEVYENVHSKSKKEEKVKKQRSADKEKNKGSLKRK

Substance | kon versus tether length (SHP-1 [1]) | kcat*(tethered) versus tether length (SHP-1 [2]) | L (reach parameter) versus tether length (SHP-1 [2]) [nm] | L (reach parameter), SH2 variants (PEG28-ITIM [3]) [nm] | allosteric activation (in words), SH2 variants (PEG28-ITIM [3]; Fig. 6B) | also measured
Biotin-GDLQEVTY*IQLDHH [PEG0-ITIM] | decrease | decrease | 17 | – | – | –
C-terminal mutant: SHP-1 with R136K mutation in the C-terminal SH2 domain | – | – | – | 23.9 | allosteric activation is observed in both cases | binding to ITIM peptide (in words), SH2 variants (PEG28-ITIM [4]): weak effect on binding
Biotin-(PEG)3-DLQEVTY*IQLDHH [PEG3-ITIM] | decrease | decrease | – | – | – | –
Biotin-(PEG)28-DLQEVTY*IQLDHH [PEG28-ITIM] | – | – | 23 | – | – | –
N-terminal mutant: SHP-1 with R30K and R33E mutations in the N-terminal SH2 domain | – | – | – | 16.5 | still exhibited allosteric activation | kcat*(tethered) over kcat*(solution), SH2 mutant (PEG28-ITIM [3]; N-SH2 mutant SHP-1 over PEG28-ITIM, n = 3): 10 fold; allosteric activation (in words), SH2 variants (PEG28-ITIM [3]; Fig. 6B, listed as N-terminal SH2 (N-SH2) mutant SHP-1): allosteric activation is observed in both cases; reach (in words), SH2 variants (PEG28-ITIM [3]; binding via C-terminal compared to N-terminal SH2 domain, PEG28-ITIM, Fig. 6B): reduced reach; binding to ITIM peptide (in words), SH2 variants (PEG28-ITIM [4]; listed as Mutation of the N-terminal SH2 domain): drastically reduced binding; binding to ITIM peptide (in words), SH2 variants (PEG28-ITIM [4]; listed as N-terminal SH2 (N-SH2) mutant SHP-1): weak binding
